This assay concerns the target Luciferin 4-monooxygenase (Photinus pyralis) (UniProt P08659). Briefly: purified FLuc enzyme activity modulation – biochemical, qHTS, Km substrates, luminescence, counter-screen for EBNA-1 inhibitor project, profiling panel (AID 588498).

Active and inactive are the calls of the source.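 The calls were made as follows: active = compounds that block purified firefly luciferase enzyme with half-maximal potency below 20 µM; inactive = the rest.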 A value given as a limit tells only on which side of the number the result lay.

Luciferin 4-monooxygenase (Photinus pyralis), sequence (P08659 whole entry, looked up): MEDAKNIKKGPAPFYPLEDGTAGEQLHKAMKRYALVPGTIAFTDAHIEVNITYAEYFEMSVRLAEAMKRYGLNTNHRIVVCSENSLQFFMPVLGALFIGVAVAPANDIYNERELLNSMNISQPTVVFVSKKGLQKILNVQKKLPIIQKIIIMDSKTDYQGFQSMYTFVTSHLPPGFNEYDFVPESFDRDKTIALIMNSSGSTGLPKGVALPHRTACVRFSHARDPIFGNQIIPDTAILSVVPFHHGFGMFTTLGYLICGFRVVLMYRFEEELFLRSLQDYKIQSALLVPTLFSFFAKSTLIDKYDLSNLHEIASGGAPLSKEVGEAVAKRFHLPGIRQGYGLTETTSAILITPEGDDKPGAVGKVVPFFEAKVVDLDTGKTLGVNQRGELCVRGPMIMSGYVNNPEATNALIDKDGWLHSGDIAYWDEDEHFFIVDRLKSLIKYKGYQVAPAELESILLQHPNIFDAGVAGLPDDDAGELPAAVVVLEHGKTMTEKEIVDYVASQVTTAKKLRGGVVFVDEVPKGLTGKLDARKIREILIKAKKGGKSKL

On to `Cc1cccc(C(=O)Nc2nc3ccc(S(C)(=O)=O)cc3s2)c1`, for which the concentration at half-maximal activity (AC50) (usually the concentration giving half of the maximal activity seen) was 2.91 µM. As for `CS(=O)(=O)c1ccc2nc(NC(=O)c3ccccc3Cl)sc2c1`, the figure is 3.26 µM; as for `Cc1ccccc1-n1nnnc1SCC(=O)c1cc(C)n(CC2CCCO2)c1C` (centres undefined), 2.91 µM. To `Cc1ccc(C(=O)Nc2nc3ccc(S(C)(=O)=O)cc3s2)cc1C` belongs 5.8 µM; to `Cc1ccc(-n2nnnc2SCC(=O)c2cc(C)n(CC3CCCO3)c2C)cc1` (centres undefined), 6.51 µM; to `Nc1c(C(=O)Nc2ccc3c(c2)OCCO3)nnn1Cc1cccc(C(F)(F)F)c1`, 20.6 µM. As for `COc1ccc(Cn2nnc(C(=O)Nc3ccc4c(c3)OCCO4)c2N)cc1`, the figure is 2.91 µM; as for `CS(=O)(=O)c1ccc2nc(NC(=O)c3cccc(F)c3)sc2c1`, 0.366 µM; as for `COc1ccc2nc(NC(=O)c3ccc(C)c(C)c3)sc2c1`, 0.651 µM. `COCCn1c(C)cc(C(=O)CSc2nnnn2-c2ccccc2)c1C`: the AC50 was 1.63 µM. As for `COc1ccc(C(=O)Nc2nc3ccc(S(C)(=O)=O)cc3s2)cc1`, the figure is 2.59 µM; as for `COc1cccc(Cn2nnc(C(=O)Nc3ccc4c(c3)OCCO4)c2N)c1`, 4.11 µM. To `Cc1cc(C(=O)CSc2nnnn2-c2ccccc2)c(C)n1CC1CCCO1` (centres undefined) belongs 2.06 µM; to `Cc1cccc(-n2nnnc2SCC(=O)c2cc(C)n(CC3CCCO3)c2C)c1` (centres undefined), 18.3 µM; to `Nc1c(C(=O)Nc2ccc3c(c2)OCCO3)nnn1Cc1cccc(Cl)c1`, 3.26 µM. As for `Cc1ccccc1NC(=O)c1nnn(Cc2cccc(Cl)c2)c1N`, the figure is > 30 µM (inactive). Consider `Cc1ccc(C(=O)Nc2nc3ccc(S(C)(=O)=O)cc3s2)cc1`, for which the AC50 was 1.83 µM. As for `Nc1c(C(=O)Nc2cccc(C(F)(F)F)c2)nnn1Cc1cccc(Cl)c1`, the figure is > 30 µM (inactive); as for `Cc1ccccc1C(=O)Nc1nc2ccc(S(C)(=O)=O)cc2s1`, 6.51 µM.

The record behind these values is PubChem BioAssay AID588498 (Molecular Libraries Program, Specialized Chemistry Center, …, 2011).
